Data published in ChEMBL document CHEMBL6078674, “Genome Mining of the Marine-Derived Fungus Trichoderma erinaceum F1-1 Unearths Bergamotene-Type Sesquiterpenoids” (J Nat Prod, 2024).

Assays:
RAW264.7 = test: Antiinflammatory activity in mouse RAW264.7 cells; type: functional, cell-based
A549 = test: Cytotoxicity against human A549 cells; type: functional, cell-based
RKO = test: Cytotoxicity against human RKO cells; type: functional, cell-based
Staphylococcus aureus = test: Antibacterial activity against methicillin-resistant Staphylococcus aureus; type: functional, organism-based

Measured: IC50

C/C(=C\CC[C@]1(C)[C@H]2CC(=O)[C@@H](C)[C@@H]1C2)CO
> 50 µM: RAW264.7 | A549 | RKO | Staphylococcus aureus

CC(=O)[C@@H]1C[C@H](CC(=O)O)[C@@]1(C)CCC=C(C)C
> 50 µM: RAW264.7 | A549 | RKO | Staphylococcus aureus

C/C(=C\CC[C@]1(C)[C@H]2CC(=O)[C@](C)(O)[C@@H]1C2)CO
> 50 µM: RAW264.7 | A549 | RKO | Staphylococcus aureus

CC(C)=CCC[C@]1(C)[C@@H]2C[C@H]1[C@@](C)(O)C(=O)[C@H]2O
> 50 µM: RAW264.7 | A549 | RKO | Staphylococcus aureus

C/C(=C\CC[C@]1(C)[C@H]2CC(=O)[C@](C)(O)[C@@H]1C2)C(=O)O
> 50 µM: RAW264.7 | A549 | RKO | Staphylococcus aureus

CC(C)=CCC[C@]1(C)[C@H]2CC(=O)[C@](C)(O[C@H]3O[C@H](CO)[C@@H](O)[C@H](O)[C@H]3O)[C@@H]1C2
> 50 µM: RAW264.7 | A549 | RKO | Staphylococcus aureus

CC(C)=CCC[C@]1(C)[C@@H]2C[C@H]1C(C)=C[C@H]2O[C@H]1O[C@H](CO)[C@@H](O)[C@H](O)[C@H]1O
> 50 µM: RAW264.7 | A549 | RKO | Staphylococcus aureus

CC(C)=CCC[C@]1(C)[C@@H]2C[C@H]1[C@@](C)(O)C(=O)C2=O
> 50 µM: RAW264.7 | A549 | RKO | Staphylococcus aureus
